Experimental data: patent US6498174B1, “Substituted oxazoles and thiazoles derivatives as hPPARγ and hPPARα activators” (SmithKline Beecham Corporation, priority 1998, dated 2002)

system: Male Zucker Diabetic Fatty rats; assay: In vivo evaluation in Zucker Diabetic Fatty rats; design: species or system rat; conditions: oral gavage b.i.d., 7 days, percent reduction from vehicle control at day 7 relative to normalization (plasma glucose 140 mg/dL)
Description: Male Zucker Diabetic Fatty rats were lightly anesthetized with isofluorane gas and bleed by tail vein to obtain postprandial baseline concentrations for plasma glucose, serum lipids and insulin. Animals were baseline matched by plasma glucose and randomized into vehicle or treatment groups with compound administration by oral gavage, b.i.d., beginning at 8.5 weeks of age. Selected compounds were administered as a suspension in 0.5% methylcellulose for 7 consecutive days. Changes in body weight and food consumption were monitored from representative animals from each group, over a 48 hr period. After 7 days of treatment animals were anesthetized, blood samples obtained and analyzed for plasma glucose and lactate, serum triglyceride, total and HDL cholesterol, non-esterified free fatty acids and insulin concentration. Livers were weighed and corrected for body weight. Values in Table 1 for % Glucose reduction represent a summary of the percent reduction from vehicle control animals at day 7 relative to normalization defined in this model as plasma glucose levels of 140 mg/dL.

First: C/C(=C/C(=O)c1ccccc1)N[C@@H](Cc1ccc(OCCc2nc(-c3ccccc3)oc2C)cc1)C(=O)O [Example 1, (2S)-2{[(Z)-1-methyl-3-oxo-3-phenyl-1-propenyl]amino}-3-{4-[2-(5-methyl-2-phenyl-1,3-oxazol-4-yl)ethoxy]phenyl}propanoic acid]
Second: CC/C(=C/C(=O)c1ccccc1)N[C@@H](Cc1ccc(OCCc2nc(-c3ccccc3)oc2C)cc1)C(=O)O [Example 20, (2S)-2-{[(Z)-1-ethyl-3-oxo-3-phenyl-1-propenyl]amino}-3-{4-[2-(5-methyl-2-phenyl-1,3-oxazol-4-yl)ethoxy]phenyl}propanoic acid]
The “% Glucose Reduction” value of the first is lower: 39% for the first, 50% for the second.

Going from C/C(=C/C(=O)c1ccccc1)N[C@@H](Cc1ccc(OCCc2nc(-c3ccc(C(F)(F)F)cc3)oc2C)cc1)C(=O)O [Example 7, (2S)-2-{[(Z)-1-methyl-3-oxo-3-phenyl-1-propenyl]amino}-3-[4-(2-{5-methyl-2-[4-(trifluoromethyl)phenyl]-1,3-oxazol-4-yl}ethoxy)phenyl]propanoic acid] to C/C(=C/C(=O)c1ccc(Cl)cc1)N[C@@H](Cc1ccc(OCCc2nc(-c3ccccc3)oc2C)cc1)C(=O)O [Example 24, (2S)-2-{[(Z)-3-(4-chlorophenyl)-1-methyl-3-oxo-1-propenyl]amino}-3-{4-[2-(5-methyl-2-phenyl-1,3-oxazol-4-yl)ethoxy]phenyl}propanoic acid], the “% Glucose Reduction” value rises from 34% to 45%.

Compared with C/C(=C/C(=O)c1ccc(F)c(F)c1F)N[C@@H](Cc1ccc(OCCc2nc(-c3ccccc3)oc2C)cc1)C(=O)O [Example 12, (2S)-2-{[(Z)-1-methyl-3-oxo-3-(2,3,4-trifluorophenyl)-1-propenyl]amino}-3-{4-[2-(5-methyl-2-phenyl-1,3-oxazol-4-yl)ethoxy]phenyl}propanoic acid], C/C(=C/C(=O)c1cc(F)c(F)cc1F)N[C@@H](Cc1ccc(OCCc2nc(-c3ccccc3)oc2C)cc1)C(=O)O [Example 16, (2S)-2-{[(Z)-1-methyl-3-oxo-3-(2,4,5-trifluorophenyl)-1-propenyl]amino}-3-{4-[2-(5-methyl-2-phenyl-1,3-oxazol-4-yl)ethoxy]phenyl}propanoic acid] is lower in “% Glucose Reduction” value: 61% for the first, 59% for the second.

First: Cc1sc(-c2ccc(F)cc2)nc1CCOc1ccc(C[C@H](N/C(=C\C(=O)c2ccccc2)C(F)(F)F)C(=O)O)cc1 [Example 21, (2S)-3-(4-{2-[2-(4-fluorophenyl)-5-methyl-1,3-thiazol-4-yl]ethoxy}phenyl)-2-{[(Z)-3-oxo-3-phenyl-1-(trifluoromethyl)-1-propenyl]amino}propanoic acid]
Second: CC/C(=C/C(=O)c1ccc(C(F)(F)F)cc1)N[C@@H](Cc1ccc(OCCc2nc(-c3ccc(F)cc3)sc2C)cc1)C(=O)O [Example 22, (2S)-2-({(Z)-1-ethyl-3-oxo-3-[4-(trifluoromethyl)phenyl]-1propenyl}amino)-3-(4-{2-[2-(4-fluorophenyl)-5-methyl-1,3-thiazol-4-yl]ethoxy}phenyl)propanoic acid]
The “% Glucose Reduction” value of the first is higher: 82% for the first, 49% for the second.

Compared with CCCC/C(=C/C(=O)c1ccccc1)N[C@@H](Cc1ccc(OCCc2nc(-c3ccccc3)oc2C)cc1)C(=O)O [Example 23, (2S)-2-{[(Z)-1-butyl-3-oxo-3-phenyl-1-propenyl]amino}-3-{4-[2-(5-methyl-2-phenyl-1,3-oxazol-4-yl)ethoxy]phenyl}propanoic acid], CCC/C(=C/C(=O)c1ccccc1)N[C@@H](Cc1ccc(OCCc2nc(-c3ccccc3)oc2C)cc1)C(=O)O [Example 40] is lower in “% Glucose Reduction” value: 86% for the first, 79% for the second.

For Cc1oc(-c2ccccc2)nc1CCOc1ccc(C[C@H](N/C(=C\C(=O)c2ccccc2)C(F)(F)F)C(=O)O)cc1 [Example 48, (2S)-3-{4-[2-(5-methyl-2-phenyl-1,3-oxazol-4-yl)ethoxy]phenyl}-2{[(Z)-3-oxo-3-phenyl-1-(trifluoromethyl)-1-propenyl]amino}propanoic acid], the “% Glucose Reduction” value was 81%.
